Experimental data taken from ChEMBL document CHEMBL4270587, “Difuran-substituted quinoxalines as a novel class of PI3Kα H1047R mutant inhibitors: Synthesis, biological evaluation and structure-activity relationship” (Eur J Med Chem, 2018).
pEC50, pIC50: −log10 of the molar value.

How the values were obtained:
[1] = target: PI3-kinase p110-alpha/p85-alpha (Homo sapiens, UniProt P42336, H1047R); assay: Inhibition of recombinant full length PI3K p85alpha/p110alpha H1047R mutant (unknown origin) expressed in baculovirus infected sf9 cells using PIP2 as substrate preincubated for 10 mins followed by ATP addition and measured after 45 mins by HTRF assay
HCT-116 = assay: cells; conditions: Homo sapiens, HCT-116, 72 h
MCF7 = assay: cells; conditions: Homo sapiens, MCF7, 72 h
Description: Antiproliferative activity against human MCF7 cells after 72 hrs by CCK8 assay

[2] = target: PI3-kinase p110-alpha/p85-alpha (Homo sapiens, UniProt P42336); assay: Inhibition of recombinant full length PI3K p110alpha/p85alpha (unknown origin) expressed in baculovirus infected sf9 cells using PIP2 as substrate preincubated for 10 mins followed by ATP addition and measured after 45 mins by HTRF assay
[3] = Inhibition of mTORC1 (unknown origin); design: species or system Homo sapiens

Sequence of PI3-kinase p110-alpha/p85-alpha (Homo sapiens, UniProt P42336, H1047R) (P42336 whole entry H1047R, looked up): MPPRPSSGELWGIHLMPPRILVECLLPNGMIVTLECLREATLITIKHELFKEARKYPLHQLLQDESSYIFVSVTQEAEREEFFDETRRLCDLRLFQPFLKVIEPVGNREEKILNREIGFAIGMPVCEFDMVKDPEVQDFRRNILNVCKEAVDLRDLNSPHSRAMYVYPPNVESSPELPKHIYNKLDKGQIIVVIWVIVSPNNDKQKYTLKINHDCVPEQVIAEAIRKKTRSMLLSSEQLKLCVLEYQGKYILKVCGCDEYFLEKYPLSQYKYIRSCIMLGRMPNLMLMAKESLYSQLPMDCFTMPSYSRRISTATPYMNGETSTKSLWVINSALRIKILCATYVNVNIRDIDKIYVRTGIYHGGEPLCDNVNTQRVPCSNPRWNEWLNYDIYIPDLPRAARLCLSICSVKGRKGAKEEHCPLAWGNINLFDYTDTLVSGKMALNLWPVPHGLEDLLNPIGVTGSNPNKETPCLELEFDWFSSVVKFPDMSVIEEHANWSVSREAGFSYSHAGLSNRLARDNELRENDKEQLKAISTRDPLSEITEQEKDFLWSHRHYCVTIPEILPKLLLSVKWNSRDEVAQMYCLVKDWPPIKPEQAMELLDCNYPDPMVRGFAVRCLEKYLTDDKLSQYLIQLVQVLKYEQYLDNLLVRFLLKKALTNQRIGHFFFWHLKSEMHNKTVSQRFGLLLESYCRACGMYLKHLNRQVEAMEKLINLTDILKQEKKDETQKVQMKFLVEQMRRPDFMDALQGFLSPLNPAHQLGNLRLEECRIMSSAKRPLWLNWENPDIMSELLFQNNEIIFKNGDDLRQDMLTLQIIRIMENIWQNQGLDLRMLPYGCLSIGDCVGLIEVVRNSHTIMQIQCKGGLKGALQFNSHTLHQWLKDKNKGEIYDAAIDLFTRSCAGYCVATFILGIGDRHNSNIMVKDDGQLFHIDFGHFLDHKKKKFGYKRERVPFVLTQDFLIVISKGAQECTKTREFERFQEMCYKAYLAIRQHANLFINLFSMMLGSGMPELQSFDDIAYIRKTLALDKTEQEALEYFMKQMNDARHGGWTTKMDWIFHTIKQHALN
Sequence of PI3-kinase p110-alpha/p85-alpha (Homo sapiens, UniProt P42336) (P27986 whole entry): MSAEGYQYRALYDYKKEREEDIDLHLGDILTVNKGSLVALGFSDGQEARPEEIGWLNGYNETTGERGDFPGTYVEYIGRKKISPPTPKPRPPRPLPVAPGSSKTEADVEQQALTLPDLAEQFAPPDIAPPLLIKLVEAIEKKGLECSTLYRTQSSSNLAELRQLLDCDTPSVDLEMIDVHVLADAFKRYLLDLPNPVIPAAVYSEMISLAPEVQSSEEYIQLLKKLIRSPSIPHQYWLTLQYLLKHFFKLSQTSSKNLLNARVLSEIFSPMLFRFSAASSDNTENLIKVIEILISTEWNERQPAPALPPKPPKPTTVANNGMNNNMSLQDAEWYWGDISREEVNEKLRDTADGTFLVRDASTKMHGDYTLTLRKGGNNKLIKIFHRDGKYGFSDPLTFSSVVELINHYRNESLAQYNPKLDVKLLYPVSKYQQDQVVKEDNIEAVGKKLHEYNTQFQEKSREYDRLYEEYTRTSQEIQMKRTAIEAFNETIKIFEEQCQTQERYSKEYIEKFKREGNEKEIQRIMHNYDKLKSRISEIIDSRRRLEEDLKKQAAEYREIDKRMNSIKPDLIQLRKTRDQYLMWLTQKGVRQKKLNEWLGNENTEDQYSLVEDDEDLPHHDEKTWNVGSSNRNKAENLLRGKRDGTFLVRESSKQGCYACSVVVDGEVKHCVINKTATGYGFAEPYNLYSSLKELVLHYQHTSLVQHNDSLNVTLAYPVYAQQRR
Sequence of PI3-kinase p110-alpha/p85-alpha (Homo sapiens, UniProt P42336) (P42336 whole entry): as the sequence (P42336 whole entry H1047R, looked up) above, with R1047H counted along it

Compound | pEC50 [1] | pIC50 (HCT-116) | pIC50 (MCF7) | pEC50 [2] | pEC50 [3]
Fc1ccc(-c2cc3nc(-c4ccco4)c(-c4ccco4)nc3cc2Br)c(F)c1 | 5.49 | 4.78 | 4.55 | – | –
Brc1cc2nc(-c3ccco3)c(-c3ccco3)nc2cc1-c1cc2ccccc2o1 | < 4.00 | < 4.30 | < 4.30 | – | –
Brc1cc2nc(-c3ccco3)c(-c3ccco3)nc2cc1Br | 4.41 | < 4.30 | < 4.30 | – | –
Fc1ccc2nc(-c3ccco3)c(-c3ccco3)nc2c1 | < 4.00 | < 4.30 | < 4.30 | – | –
COc1ccccc1-c1ccc2nc(-c3ccco3)c(-c3ccco3)nc2c1 | 4.06 | < 4.30 | < 4.30 | – | –
Brc1ccc2nc(-c3ccco3)c(-c3ccco3)nc2c1 | 4.47 | < 4.30 | < 4.30 | 4.56 | –
Clc1cc(Cl)c2nc(-c3ccco3)c(-c3ccco3)nc2c1 | 4.12 | < 4.30 | < 4.30 | 4.26 | –
FC(F)(F)c1ccccc1-c1cc2nc(-c3ccco3)c(-c3ccco3)nc2cc1Br | 6.77 | 4.87 | 4.81 | 7.01 | –
Brc1cc2nc(-c3ccco3)c(-c3ccco3)nc2cc1-c1ccccc1 | 4.69 | < 4.30 | < 4.30 | – | –
Brc1ccccc1-c1cc2nc(-c3ccco3)c(-c3ccco3)nc2cc1Br | < 4.00 | < 4.30 | < 4.30 | – | –
Fc1cccc(-c2cc3nc(-c4ccco4)c(-c4ccco4)nc3cc2Br)c1 | 5.54 | 4.37 | 4.71 | – | –
Cn1c(=O)n(-c2ccc(C(C)(C)C#N)cc2)c2c3cc(-c4cnc5ccccc5c4)ccc3ncc21 [DACTOLISIB] | – | – | – | – | 7.10
Brc1cc2nc(-c3ccco3)c(-c3ccco3)nc2cc1-c1cncnc1 | 4.87 | < 4.30 | < 4.30 | – | –
Clc1ccc2nc(-c3ccco3)c(-c3ccco3)nc2c1 | 4.74 | < 4.30 | < 4.30 | – | –
c1coc(-c2nc3ccc(-c4cc5ccccc5s4)cc3nc2-c2ccco2)c1 | < 4.00 | < 4.30 | < 4.30 | – | –
CC(C)(C)OC(=O)n1cccc1-c1cc2nc(-c3ccco3)c(-c3ccco3)nc2cc1Br | 4.73 | < 4.30 | < 4.30 | – | –
Fc1cccc(-c2cc3nc(-c4ccco4)c(-c4ccco4)nc3cc2Br)c1F | 5.14 | < 4.30 | < 4.30 | – | –
Oc1ccccc1-c1ccc2nc(-c3ccco3)c(-c3ccco3)nc2c1 | 4.36 | < 4.30 | < 4.30 | – | –
c1csc(-c2nc3ccccc3nc2-c2cccs2)c1 | < 4.00 | < 4.30 | < 4.30 | – | –

Compound | pEC50 [1] | pIC50 (HCT-116) | pIC50 (MCF7) | pEC50 [2] | pEC50 [3]
FC(F)(F)c1ccccc1-c1ccc2nc(-c3ccco3)c(-c3ccco3)nc2c1 | 4.93 | 4.34 | < 4.30 | 4.89 | –
Fc1ccccc1-c1ccc2nc(-c3ccco3)c(-c3ccco3)nc2c1 | 4.90 | 4.40 | < 4.30 | – | –
Cc1ccc2nc(-c3ccco3)c(-c3ccco3)nc2c1 | < 4.00 | < 4.30 | < 4.30 | – | –
COc1cc(OC)cc(-c2cc3nc(-c4ccco4)c(-c4ccco4)nc3cc2Br)c1 | < 4.00 | < 4.30 | < 4.30 | – | –
c1ccc(-c2ccc3nc(-c4ccco4)c(-c4ccco4)nc3c2)cc1 | 4.32 | < 4.30 | < 4.30 | 4.91 | –
c1ccc(-c2nc3ccccc3nc2-c2ccccc2)cc1 | < 4.00 | < 4.30 | < 4.30 | – | –
c1coc(-c2nc3ccc(-c4ccncc4)cc3nc2-c2ccco2)c1 | < 4.00 | < 4.30 | < 4.30 | – | –
Brc1cc2nc(-c3ccco3)c(-c3ccco3)nc2cc1-c1ccncc1 | 4.97 | 4.34 | < 4.30 | – | –
COc1ccc(-c2cc3nc(-c4ccco4)c(-c4ccco4)nc3cc2Br)cc1 | < 4.00 | < 4.30 | < 4.30 | – | –
Oc1ccccc1-c1cc2nc(-c3ccco3)c(-c3ccco3)nc2cc1Br | < 4.00 | < 4.30 | < 4.30 | – | –
Fc1ccc(-c2cc3nc(-c4ccco4)c(-c4ccco4)nc3cc2Br)cc1 | 5.72 | 4.42 | 4.46 | – | –
COc1ccccc1-c1cc2nc(-c3ccco3)c(-c3ccco3)nc2cc1Br | < 4.00 | < 4.30 | < 4.30 | – | –
Clc1ccc2nc(-c3ccco3)c(-c3ccco3)nc2c1Cl | < 4.00 | < 4.30 | < 4.30 | – | –
FC(F)(F)c1ccc(-c2cc3nc(-c4ccco4)c(-c4ccco4)nc3cc2Br)cc1 | 6.29 | 4.83 | 4.60 | – | –
Clc1ccccc1-c1cc2nc(-c3ccco3)c(-c3ccco3)nc2cc1Br | < 4.00 | < 4.30 | < 4.30 | – | –
Brc1cc2nc(-c3ccco3)c(-c3ccco3)nc2cc1-c1cc2ccccc2s1 | 5.92 | 4.41 | 4.39 | – | –
c1coc(-c2nc3ccc(-c4cc5ccccc5o4)cc3nc2-c2ccco2)c1 | < 4.00 | < 4.30 | < 4.30 | – | –
c1ccc2nc(N3CCOCC3)c(N3CCOCC3)nc2c1 | < 4.00 | < 4.30 | < 4.30 | – | –
FC(F)(F)c1ccc2nc(-c3ccco3)c(-c3ccco3)nc2c1 | < 4.00 | < 4.30 | < 4.30 | – | –
